Experimental data reported in BindingDB's records for doi:10.1021/jm960441m (Upjohn, 1997).

Assays:
[1] = molecular target: T1, Dimer of Gag-Pol polyprotein [489-587] (Human immunodeficiency virus 1, UniProt P04585); assay: Protease Inhibition Assay; details: pH 5; 22 °C
T1 construct: 489-587
Text: (§1) HIV-1 protease was purified and refolded from E. coli inclusion bodies. […] In the presence of HIV-l protease, the substrate is rapidly cleaved into two parts. The biotinylated amino terminal fragment binds to the avidin beads while the FITC-containing carboxy1 terminal fragment is removed through the membrane. […] The bound fluorescence is obtained by processing on an IDEXX Screen Machine. Determination of Ki values with this assay requires analysis under conditions in which substrate concentration resides substantially below Km and the inhibitor concentrations greatly exceeds the Ki value and the enzyme concentration.

[2] = molecular target: T2, Dimer of Gag-Pol polyprotein [489-587] (Human immunodeficiency virus 1, UniProt P12497); assay: Protease Inhibition Assay
T2 construct: 489-587
Text: as §1

| SMILES | Ki [1] | Ki [2] |
| --- | --- | --- |
| N#Cc1cccc(S(=O)(=O)Nc2cccc(C(c3c(O)c4c(oc3=O)CCCCCC4)C3CC3)c2)c1 (stereo not drawn) [3-cyano-N-{3-[cyclopropyl({4-hydroxy-2-oxo-2H,5H,6H,7H,8H,9H,10H-cycloocta[b]pyran-3-yl})methyl]phenyl}benzene-1-sulfonamide] | 0.6 nM |  |
| O=c1oc2c(c(O)c1C(c1cccc(NS(=O)(=O)c3ccc([N+](=O)[O-])cc3)c1)C1CC1)CCCCCC2 (stereo not drawn) [N-{3-[cyclopropyl({4-hydroxy-2-oxo-2H,5H,6H,7H,8H,9H,10H-cycloocta[b]pyran-3-yl})methyl]phenyl}-4-nitrobenzene-1-sulfonamide] |  | 2.7 nM |
| O=c1oc2c(c(O)c1C(c1cccc(NS(=O)(=O)c3cccc4ccccc34)c1)C1CC1)CCCCCC2 (stereo not drawn) [N-{3-[cyclopropyl({4-hydroxy-2-oxo-2H,5H,6H,7H,8H,9H,10H-cycloocta[b]pyran-3-yl})methyl]phenyl}naphthalene-1-sulfonamide] |  | 5.5 nM |
| O=c1oc2c(c(O)c1C(c1cccc(NS(=O)(=O)c3ccc4ccccc4c3)c1)C1CC1)CCCCCC2 (stereo not drawn) [N-{3-[cyclopropyl({4-hydroxy-2-oxo-2H,5H,6H,7H,8H,9H,10H-cycloocta[b]pyran-3-yl})methyl]phenyl}naphthalene-2-sulfonamide] |  | 4.1 nM |
| O=c1oc2c(c(O)c1C(c1cccc(NS(=O)(=O)c3cnccn3)c1)C1CC1)CCCCCC2 (stereo not drawn) [N-{3-[cyclopropyl({4-hydroxy-2-oxo-2H,5H,6H,7H,8H,9H,10H-cycloocta[b]pyran-3-yl})methyl]phenyl}pyrazine-2-sulfonamide] |  | 0.2 nM |
| O=c1oc2c(c(O)c1C(c1cccc(NS(=O)(=O)c3ncccn3)c1)C1CC1)CCCCCC2 (stereo not drawn) [N-{3-[cyclopropyl({4-hydroxy-2-oxo-2H,5H,6H,7H,8H,9H,10H-cycloocta[b]pyran-3-yl})methyl]phenyl}pyrimidine-2-sulfonamide] |  | 0.8 nM |
| O=c1oc2c(c(O)c1C(c1cccc(NS(=O)(=O)c3ccc4ccccc4n3)c1)C1CC1)CCCCCC2 (stereo not drawn) [N-{3-[cyclopropyl({4-hydroxy-2-oxo-2H,5H,6H,7H,8H,9H,10H-cycloocta[b]pyran-3-yl})methyl]phenyl}quinoline-2-sulfonamide] |  | 0.4 nM |
| O=c1oc2c(c(O)c1C(c1cccc(NS(=O)(=O)c3cccs3)c1)C1CC1)CCCCCC2 (stereo not drawn) [N-{3-[cyclopropyl({4-hydroxy-2-oxo-2H,5H,6H,7H,8H,9H,10H-cycloocta[b]pyran-3-yl})methyl]phenyl}thiophene-2-sulfonamide] |  | 6.3 nM |
